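Test compounds were applied to cells in 96-well plates for 48 hours at 5 doses. Definition used: TGI = concentration required for complete inhibition of growth.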

What all share (experiment): NCI tumour cell line growth inhibition, 48 h
Experiment [1] deals with CCRF-CEM leukemia.
Experiment [2] concerns HOP-92 NSCLC.
In experiment [3] the test system is KM12 colon.
The test system of experiment [4] is MDA-MB-435.
In experiment [5] the test system is MOLT-4 leukemia.
For experiment [6], the system named is SK-MEL-2 melanoma.
The subject of experiment [7] is SK-OV-3 ovarian.
Experiment [8] relates to SR leukemia.
In experiment [9] the test system is U251 CNS.
Experiment [10] deals with UACC-62 melanoma.

For the molecule `O=[N+]([O-])c1ccc(N/N=C/CC(O)(C(F)(F)F)C(F)(F)F)c([N+](=O)[O-])c1`, the TGI was greater than 10 µM in experiment [1]; 6.59 µM in experiment [2]; greater than 10 µM in [3]; greater than 10 µM in experiment [4]; greater than 10 µM in experiment [5]; 6.64 µM in experiment [6]. Also, the TGI in experiment [7], in experiment [8], in experiment [9] and in experiment [10] was greater than 10 µM in each case.
Turning to `CCOC(=O)c1c(-c2ccc(Cl)cc2)c(C#N)c(=S)n(C2OC(COC(C)=O)C(OC(C)=O)C(OC(C)=O)C2OC(C)=O)c1-c1ccccc1` (stereo not given), the TGI in experiment [1] was greater than 100 µM; in experiment [2] it was 81.7 µM; in experiment [3], greater than 100 µM; in experiment [4], greater than 100 µM; in experiment [5], greater than 100 µM; in experiment [6] it was greater than 100 µM. In addition, the TGI in experiment [7], in experiment [8], in experiment [9] and in experiment [10] was greater than 100 µM throughout.
As to `C/C(=C\c1ccccc1)C(=O)NCc1ccc(C(=O)NCCc2ccccc2)cc1`, the TGI was greater than 100 µM in [1]; 99.1 µM in [2]; greater than 100 µM in [3]; greater than 100 µM in [4]; greater than 100 µM in experiment [5]; greater than 100 µM in experiment [6]. The TGI was 51.8 µM in [7], greater than 100 µM in [8], greater than 100 µM in [9] and greater than 100 µM in experiment [10].
In the case of `CC1=NN(C(=O)CC(=O)Nc2ccccc2Cl)C(=O)C1N=Nc1ccc(S(=O)(=O)c2ccc(N=NC3C(=O)N(C(=O)CC(=O)Nc4ccccc4Cl)N=C3C)cc2)cc1` (stereo not given), the TGI in experiment [1], in [2], in [3], in experiment [4], in [5] and in [6] was greater than 100 µM each time. For the same molecule, the TGI in [7], in experiment [8], in [9] and in [10] was greater than 100 µM each time.
Consider `C(=N\Nc1ccc(-c2nc3ccccc3[nH]2)cc1)/c1c(-c2ccc(Cc3ccccc3)cc2)[nH]c2ccccc12`, for which the TGI in experiment [1] was greater than 100 µM; in [2], 25.7 µM; in experiment [3], greater than 41.3 µM; in [4] it was greater than 27.4 µM; in [5] it was greater than 37.3 µM; in experiment [6], 20 µM. Also, the TGI in [7] is greater than 100 µM; in experiment [8], greater than 100 µM; in [9], greater than 51.2 µM; in experiment [10], greater than 54.3 µM.
Regarding `CSc1c(C#N)c(N)nc2c(N=Nc3ccc(Br)cc3)c(N)nn12`, the TGI in experiment [1] was determined as 10.2 µM; in experiment [2] it was 18.9 µM; in experiment [3] it was 23.6 µM; in [4] it was 25 µM; in experiment [5] it was 27.3 µM; in [6], 17.2 µM. Further, the TGI in experiment [7] stood at 38.1 µM; in [8], 6.76 µM; in [9], 16.8 µM; in [10] it was 19.4 µM.
As to `C=CCc1cc(-c2cc(CC=C)c(O)c(CN(CC)CC)c2)cc(CN(CC)CC)c1O`, the TGI in experiment [1] is 79.1 µM; in experiment [2] it was 96.9 µM; in [3], greater than 100 µM; in [4] it was greater than 92.7 µM; in experiment [5] it was greater than 100 µM; in experiment [6], 60.3 µM. The TGI in experiment [7] is greater than 100 µM; in experiment [8], 70.6 µM; in experiment [9], greater than 100 µM; in experiment [10], 48.5 µM.
In the case of `CCOC(=O)C[n+]1cccc(C2(c3cc4ccccc4[nH]3)OCCO2)c1`, the TGI in experiment [1], in [2], in [3], in experiment [4], in experiment [5] and in experiment [6] was greater than 100 µM throughout. For the same molecule, the TGI in [7], in experiment [8], in experiment [9] and in [10] was greater than 100 µM each time.
Take `CCOC(=O)c1sc2nc(SC)nc3c2c1NCN3c1ccc(F)c(F)c1`: the TGI is greater than 100 µM in experiment [1]; 83 µM in experiment [2]; greater than 86.5 µM in experiment [3]; 41.7 µM in experiment [4]; greater than 100 µM in experiment [5]; greater than 100 µM in experiment [6]. The TGI in experiment [7] is 43.5 µM; in experiment [8] it was greater than 100 µM; in [9] it was 30.8 µM; in experiment [10], greater than 100 µM.
Regarding `O=C1Nc2ccccc2Cn2c1cc1oc(-c3ccccc3)cc12`, the TGI is greater than 100 µM in experiment [1]; 73.7 µM in [2]; greater than 100 µM in experiment [3]; greater than 100 µM in [4]; greater than 100 µM in experiment [5]; greater than 100 µM in experiment [6]. The TGI in experiment [7] was 69.9 µM; in [8], greater than 100 µM; in experiment [9] it was 36.3 µM; in experiment [10] it was greater than 100 µM.
Take `O=C(CCCCCCCCC(=O)N1C(=O)CC(=O)N(c2ccccc2)C1=S)N1C(=O)CC(=O)N(c2ccccc2)C1=S`: the TGI in [1], in experiment [2], in experiment [3], in experiment [4], in [5] and in experiment [6] was greater than 100 µM in each case. The TGI in [7], in experiment [8], in experiment [9] and in experiment [10] was greater than 100 µM in each case.
Turning to `COC(=O)/C=C\C(C#N)(C#N)N=Cc1ccccc1`, the TGI in experiment [1] turned out to be 2.4 µM; in experiment [2] it was 3.74 µM; in [3] it was 33.4 µM; in experiment [4], 5.22 µM; in experiment [5], 3.85 µM; in experiment [6], 32.9 µM. The TGI in experiment [7] is 32.4 µM; in experiment [8] it was 3.36 µM; in [9], 35.6 µM; in experiment [10], 28 µM.
